This note sets out measurements from patent publication US3963707A, “Novel N-nitroso compounds, compositions containing such compounds, processes for their preparation and methods of treatment therewith, and novel intermediates” (Aktiebolaget Leo, priority 1973, dated 1976).

The subject of this assay is Hepatoma AH 130. The assay can be described thus: in vivo. Set-up: species or system SPF Wistar rats. The conditions noted are these: additional compounds, result in words. From the text: The high activity against tumours is further illustrated in these experiments by comparisons with known antitumour agents used in the therapy. The therapeutic indexes (T.I.), i.e. the ratios LD50/ED50, are in all comparisons much more favourable with the compounds of the present invention.
LD50 is the dose that caused a 50 percent lethality of the animals, ED50 is the dose that caused a 50 percent reduction of tumour size.
The experimental design and the interpretation of the results have been in accordance with the standards set by the CCNSC (Cancer Chemotherapy Reports, January 1959 and December 1962), and by the DR&D (Cancer Chemotherapy Reports, September 1972, Vol. 3, No. 2).
The way of administration is by the intraperitoneal route (i.p.) in each case.
Experimental animals: SPF Wistar rats.
Tumour implant: 5 × 10^6 tumour cells i.p.
Therapy: One injection i.p. on the day following implantation.
Termination: The animals are killed on the 8th day.
Evaluation: Weights of tumours of test animals compared with those of control animals.
Consider `CCCCCCOc1ccc(CCC(=O)O[C@H]2CC[C@H]3[C@@H]4CC=C5C[C@@H](OC(=O)N(CCCl)N=O)CC[C@]5(C)[C@H]4CC[C@]23C)cc1` [androstenediol-17β-p-hexoxyphenylpropionate-3β-N-(2 -chloroethyl)-N-nitroso carbamate], for which the anti-tumor activity result is reported as “exhibit anti-tumor activity”. In the case of `C#C[C@]1(OC(=O)N(CCCl)N=O)CC[C@H]2[C@@H]3CCC4=C[C@@H](OC(=O)CCCCCC)CC[C@@H]4[C@H]3CC[C@@]21C` [ethynodiol-17β-N-(2-chloroethyl)-N-nitroso carbamate-3β-oenanthate] it was “exhibit anti-tumor activity”. As for `C#C[C@]1(OC(C)=O)CC[C@H]2[C@@H]3CCC4=C[C@@H](OC(=O)N(C(=O)N(CCCl)N=O)C5CCC(C)CC5)CC[C@@H]4[C@H]3CC[C@@]21C` (stereo partly drawn) [ethynodiol-17β-acetate-3β-/N^2-(4-methylcyclohexyl)-N^4-(2-chloroethyl)-N^4-nitroso allophanate/], the anti-tumor activity entry was “exhibit anti-tumor activity”.

`C#C[C@]1(OC(=O)N(CCCl)N=O)CC[C@H]2[C@@H]3CCC4=CC(=O)CC[C@@H]4[C@H]3CC[C@@]21CC` [17α-ethynyl-18-methyl-19-nortestosterone-17β-N-(2-chloroethyl)-N-nitroso carbamate]: the anti-tumor activity result is on record as “exhibit anti-tumor activity”. To `Cc1ccc(N(C(=O)Oc2ccc3c(c2)CC[C@@H]2[C@@H]3CC[C@]3(C)C(=O)CC[C@@H]23)C(=O)N(CCCl)N=O)cc1` [estrone-3-/N^2-(4-methylphenyl)-N^4-(2-chloroethyl)-N^4-nitroso allophanate/] belongs “exhibit anti-tumor activity”.

With `C[C@]12CC[C@@H]3c4ccc(OC(=O)N(CCCl)N=O)cc4CC[C@H]3[C@@H]1CC[C@@H]2OP(=O)(O)Oc1ccccc1` [estradiol-17β-phenyl hydrogen phosphate-3-N-(2-chloroethyl)-N-nitroso carbamate], the anti-tumor activity entry was “exhibit anti-tumor activity”.

As for `CC(C)[C@@H](C)/C=C/[C@@H](C)[C@H]1CC[C@H]2C3=CC=C4C[C@@H](OC(=O)N(CCCl)N=O)CC[C@]4(C)[C@H]3CC[C@]12C` [ergosterol-3β-N-(2-chloroethyl)-N-nitroso carbamate], the anti-tumor activity entry is listed as “exhibit anti-tumor activity”. In the case of `C#C[C@]1(OC(=O)N(CCCl)N=O)CC[C@H]2[C@@H]3CCC4=C[C@@H](OP(=O)(O)OCC)CC[C@@H]4[C@H]3CC[C@@]21C` [ethynodiol-17β-N-(2-chloroethyl)-N-nitroso carbamate-3β-ethyl hydrogen phosphate] it was “exhibit anti-tumor activity”; in that of `CC(C)CCC[C@@H](C)[C@H]1CC[C@H]2[C@@H]3CC=C4C[C@@H](OC(=O)NC(=O)N(CCCl)N=O)CC[C@]4(C)[C@H]3CC[C@]12C` [cholesterol-3β-/N^4-(2-chloroethyl)-N^4-nitroso allophanate/], “exhibit anti-tumor activity”.

As to `C=CC[C@]1(OC(=O)N(CCCl)N=O)CC[C@H]2[C@@H]3CCC4=CCCC[C@@H]4[C@H]3CC[C@@]21C` [17α-allyl-estr-4-en-17β-ol,17β-N-(2-chloroethyl)-N-nitroso carbamate], the anti-tumor activity entry is recorded as “exhibit anti-tumor activity”. For `C#C[C@]1(OC(=O)N(CCCl)N=O)CC[C@H]2[C@@H]3CCC4=C[C@@H](OS(=O)(=O)O)CC[C@@H]4[C@H]3CC[C@@]21C` [ethynodiol-17β-N-(2-chloroethyl)-N-nitroso carbamate-3β-sodium sulphate], the anti-tumor activity entry was “exhibit anti-tumor activity”. To `C[C@]12C=CC(=O)C=C1CC[C@@H]1[C@@H]2[C@@H](O)C[C@@]2(C)[C@H]1CC[C@]2(O)C(=O)COC(=O)N(C(=O)N(CCCl)N=O)C1CCCCC1` [prednisolone-21-/N^2-cyclohexyl-N^4-(2-chloroethyl)-N-nitroso allophanate/] belongs “exhibit anti-tumor activity”. To `CN(C(=O)O[C@H]1CC[C@@]2(C)C(=CC[C@H]3[C@@H]4CC[C@H](OP(=O)(O)O)[C@@]4(C)CC[C@@H]32)C1)C(=O)N(CCCl)N=O` [androstenediol-3β-/N^2-methyl-N^4-(2-chloroethyl)-N^4 nitroso allophanate/-17β-dihydrogen phosphate] belongs “exhibit anti-tumor activity”; to `CC1CCC(N(C(=O)O[C@H]2CC[C@@]3(C)C(=CC[C@@H]4[C@@H]3CC[C@]3(C)C(=O)CC[C@@H]43)C2)C(=O)N(CCCl)N=O)CC1` (stereo partly drawn) [dehydroepiandrosterone-3β-/N^2-(4-methylcyclohexyl)-N^4-(2-chloroethyl)-N^4-nitroso allophanate/], “exhibit anti-tumor activity”. In the case of `C#C[C@]1(OC(=O)N(CCCl)N=O)CC[C@H]2[C@@H]3CCC4=C[C@@H](OP(=O)(O)Oc5ccccc5)CC[C@@H]4[C@H]3CC[C@@]21C` [ethynodiol-17β-N-(2-chloroethyl)-N-nitroso carbamate-3β-phenylhydrogen phosphate] it was “exhibit anti-tumor activity”; in that of `CC(=O)[C@H]1CC[C@H]2[C@@H]3CC=C4C[C@@H](OC(=O)N(CCCl)C(=O)N(CCCl)N=O)CC[C@]4(C)[C@H]3CC[C@]12C` [pregnenolone-3β-/N^2,N^4-bis (2-chloroethyl)-N^4-nitroso allophanate/], “exhibit anti-tumor activity”.

For the molecule `CC1=C2CC[C@H]3[C@@H]4CC[C@H](OC(=O)N(CCCl)N=O)[C@@]4(C)CC[C@@H]3[C@@]2(C)CCC1=O` [4-methyl-testosterone-17β-N-(2-chloroethyl)-N-nitroso carbamate], the anti-tumor activity result is recorded as “exhibit anti-tumor activity”.

Take `CC(=O)[C@@]1(OC(=O)N(CCCl)N=O)CC[C@H]2[C@@H]3C=C(Cl)C4=CC(=O)CC[C@]4(C)[C@H]3CC[C@@]21C` [6-chloro-6-dehydro-17α-hydroxyprogesterone,17α-N-(2-chloroethyl)-N-nitroso carbamate]: the anti-tumor activity result is listed as “exhibit anti-tumor activity”. In the case of `CC(=O)[C@@]1(OC(=O)N(CCCl)N=O)CC[C@H]2[C@@H]3C[C@H](C)C4=CC(=O)CC[C@]4(C)[C@H]3CC[C@@]21C` [6α-methyl-17α-hydroxy-progesterone,17α-N-(2-chloroethyl)-N-nitroso carbamate], the anti-tumor activity entry is given as “exhibit anti-tumor activity”. As to `CO[C@H]1CC[C@H]2[C@@H]3CC=C4C[C@@H](OC(=O)N(CCCl)N=O)CC[C@]4(C)[C@H]3CC[C@]12C` [androstenediol-17β-methylether-3β-N-(2-chloroethyl)-N-nitroso carbamate], the anti-tumor activity result is recorded as “exhibit anti-tumor activity”. In the case of `CC(=O)O[C@H]1CC[C@H]2[C@@H]3CCc4cc(OC(=O)N(CCF)N=O)ccc4[C@H]3CC[C@]12C` [estradiol-17β-acetate-3-N-(2-fluoroethyl)-N-nitroso carbamate] it was “exhibit anti-tumor activity”; in that of `C#C[C@]1(OC(=O)N(CCCl)N=O)CC[C@H]2[C@@H]3CCC4=C[C@@H](OP(=O)(O)O)CC[C@@H]4[C@H]3CC[C@@]21C` [ethynodiol-17β-N-(2-chloroethyl)-N-nitroso carbamate-3β-dihydrogen phosphate], “exhibit anti-tumor activity”.

In the case of `C[C@]12C=CC(=O)C=C1CC[C@@H]1[C@@H]2[C@@H](OC(=O)N(CCCl)N=O)C[C@@]2(C)[C@H]1CC[C@]2(O)C(=O)COP(=O)(O)O` [prednisolone-11β-/N-(2-chloroethyl)-N-nitroso carbamate/-21-dihydrogenphosphate], the anti-tumor activity result is “exhibit anti-tumor activity”. In the case of `C[C@]12CC[C@H]3[C@@H](CC=C4C[C@@H](OC(=O)N(CCCl)N=O)CC[C@@]43C)[C@@H]1CC[C@@H]2OC(=O)c1ccccc1` [androstenediol-17β-benzoate-3β-N-(2-chloroethyl)-N-nitroso carbamate] it was “exhibit anti-tumor activity”; in that of `Cc1ccc(N(C(=O)O[C@H]2CC[C@@]3(C)C(=CC[C@@H]4[C@@H]3CC[C@]3(C)C(=O)CC[C@@H]43)C2)C(=O)N(CCCl)N=O)cc1C` [dehydroepiandrosterone-3β-/N^2-(3,4-dimethylphenyl)-N^4-(2-chloroethyl)-N^4-nitroso allophanate/], “exhibit anti-tumor activity”. In the case of `COc1ccc2c(c1)CC[C@@H]1[C@@H]2CC[C@]2(C)[C@@H](OC(=O)NC(=O)N(CCCl)N=O)CC[C@@H]12` [estradiol-3-methylether-17β-/N^4-(2-chloroethyl)-N^4-nitroso allophanate/] it was “exhibit anti-tumor activity”; in that of `CC1CC2(C)C(CCC3C2CCC2(C)C(OC(=O)N(CCCl)N=O)CCC32)CC1=O` (stereo not drawn) [2α-methyl-dihydrotestosterone-17β-N-(2-chloroethyl)-N-nitroso carbamate], “exhibit anti-tumor activity”; in that of `CC(=O)OCC(=O)[C@H]1CC[C@H]2[C@@H]3CCC4=CC(=O)CC[C@]4(C)[C@H]3[C@@H](OC(=O)N(CCCl)N=O)C[C@]12C` [corticosterone-21-acetate-11β-N-(2-chloroethyl)-N-nitroso carbamate], “exhibit anti-tumor activity”. In the case of `CCOP(=O)(O)O[C@H]1CC[C@H]2[C@@H]3CCc4cc(OC(=O)N(CCCl)N=O)ccc4[C@H]3CC[C@]12C` [estradiol-17β-ethyl hydrogen phosphate-3-N-(2-chloroethyl)-N-nitroso carbamate] it was “exhibit anti-tumor activity”; in that of `CC(=O)[C@H]1CC[C@H]2[C@@H]3CC=C4C[C@@H](OC(=O)N(C(=O)N(CCCl)N=O)c5ccccc5)CC[C@]4(C)[C@H]3CC[C@]12C` [pregnenolone-3β-/N^2-phenyl-N^4-(2-chloroethyl)-N^4-nitroso allophanate/], “exhibit anti-tumor activity”.
